Reference: article PMC4026327 (Nature Communications, 2014)

Columns and labels:
Conditions in all cases: read-out: Melibiose displacement of D ^ 2 G (IC 50); 10 μM D2G, 20 mM NaCl, 100 mM KPi pH 7.5
MelBSt (WT) [1] = target: MelBSt (WT) (Salmonella enterica, UniProt P30878, L5M/R295C)
MelBSt (WT) [2] = target: MelBSt (WT) (Salmonella enterica, UniProt P30878, L5M/R363C)
MelBSt (WT) [3] = target: MelBSt (WT) (Salmonella enterica, UniProt P30878, L5M/R141C)
MelBSt (WT) [4] = target: MelBSt (WT) (Salmonella enterica, UniProt P30878, L5M)

OC[C@H]1O[C@H](OC[C@H]2OC(O)[C@H](O)[C@@H](O)[C@@H]2O)[C@H](O)[C@@H](O)[C@H]1O (stereo partly shown) [melibiose]
IC50 (MelBSt (WT) [1]): 4.04 ± 0.42 mM
IC50 (MelBSt (WT) [2]): 2.83 ± 0.57 mM
IC50 (MelBSt (WT) [3]): 5.93 ± 1.61 mM
IC50 (MelBSt (WT) [4]): 2.65 ± 0.8 mM
